PubChem BioAssay (NCI)
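These data come from cells grown in 96-well plates and exposed to compound for 48 hours at five concentrations. The concentration for 50% growth inhibition is given as GI50. Definition used: TGI = concentration required for complete inhibition of growth.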

What was measured:
Assay in all cases: inhibition of tumour cell growth, NCI panel, 48 h
SF-539 CNS = tested on: SF-539 CNS
SK-MEL-5 melanoma = tested on: SK-MEL-5 melanoma
UACC-257 melanoma = tested on: UACC-257 melanoma
SN12C renal = tested on: SN12C renal
U251 CNS = tested on: U251 CNS
MCF7 breast = tested on: MCF7 breast
MOLT-4 leukemia = tested on: MOLT-4 leukemia
IGROV1 ovarian = tested on: IGROV1 ovarian
SNB-19 CNS = tested on: SNB-19 CNS
UO-31 renal = tested on: UO-31 renal
NCI-H23 lung = tested on: NCI-H23 lung
EKVX NSCLC = tested on: EKVX NSCLC
SNB-75 CNS = tested on: SNB-75 CNS
NCI-H226 lung = tested on: NCI-H226 lung
T-47D breast = tested on: T-47D breast
MDA-MB-231 breast = tested on: MDA-MB-231 breast
HS 578T breast = tested on: HS 578T breast
NCI-H522 lung = tested on: NCI-H522 lung
RPMI-8226 leukemia = tested on: RPMI-8226 leukemia
ACHN renal = tested on: ACHN renal
HT29 colon = tested on: HT29 colon
DU-145 prostate = tested on: DU-145 prostate
PC-3 prostate = tested on: PC-3 prostate
HOP-92 NSCLC = tested on: HOP-92 NSCLC
MDA-MB-435 = tested on: MDA-MB-435
HCT-116 colon = tested on: HCT-116 colon
SK-MEL-28 melanoma = tested on: SK-MEL-28 melanoma
SW-620 colon = tested on: SW-620 colon
LOX IMVI melanoma = tested on: LOX IMVI melanoma
RXF 393 renal = tested on: RXF 393 renal
BT-549 breast = tested on: BT-549 breast
NCI-H460 lung = tested on: NCI-H460 lung
HCC-2998 colon = tested on: HCC-2998 colon
SF-268 CNS = tested on: SF-268 CNS
UACC-62 melanoma = tested on: UACC-62 melanoma
OVCAR-5 ovarian = tested on: OVCAR-5 ovarian
K-562 leukemia = tested on: K-562 leukemia
HL-60(TB) leukemia = tested on: HL-60(TB) leukemia
HOP-62 NSCLC = tested on: HOP-62 NSCLC
NCI/ADR-RES ovarian = tested on: NCI/ADR-RES ovarian
SK-MEL-2 melanoma = tested on: SK-MEL-2 melanoma
M14 melanoma = tested on: M14 melanoma
OVCAR-3 ovarian = tested on: OVCAR-3 ovarian
CAKI-1 renal = tested on: CAKI-1 renal
A549 NSCLC = tested on: A549 NSCLC
SF-295 CNS = tested on: SF-295 CNS
OVCAR-8 ovarian = tested on: OVCAR-8 ovarian
OVCAR-4 ovarian = tested on: OVCAR-4 ovarian
SK-OV-3 ovarian = tested on: SK-OV-3 ovarian
SR leukemia = tested on: SR leukemia
KM12 colon = tested on: KM12 colon
A498 renal = tested on: A498 renal
HCT-15 colon = tested on: HCT-15 colon
COLO 205 colon = tested on: COLO 205 colon
786-0 renal = tested on: 786-0 renal

`CCOC(=O)c1sc2ncn(Cc3cccc(Br)c3)c(=O)c2c1C` was tested, and the GI50 (SF-539 CNS) was 84.5 µM, the TGI (SF-539 CNS) was over 100 µM and the GI50 (SK-MEL-5 melanoma) was 25.7 µM. It also gave a TGI (SK-MEL-5 melanoma) of 96 µM, a GI50 (UACC-257 melanoma) of 21.1 µM and a TGI (UACC-257 melanoma) of 84.4 µM. For the same molecule, the GI50 (SN12C renal) was 11.7 µM, the TGI (SN12C renal) was 47.3 µM and the GI50 (U251 CNS) was 31.7 µM. It also gave a TGI (U251 CNS) of over 100 µM, a GI50 (MCF7 breast) of 31.4 µM and a TGI (MCF7 breast) of over 100 µM. For the same molecule, the GI50 (MOLT-4 leukemia) was 25.3 µM, the TGI (MOLT-4 leukemia) was over 100 µM and the GI50 (IGROV1 ovarian) was 0.172 µM. The TGI (IGROV1 ovarian) was over 100 µM, the GI50 (SNB-19 CNS) was over 100 µM and the TGI (SNB-19 CNS) was over 100 µM. It also gave a GI50 (UO-31 renal) of 34.2 µM, a TGI (UO-31 renal) of over 100 µM and a GI50 (NCI-H23 lung) of 66.7 µM. For the same molecule, the TGI (NCI-H23 lung) was over 100 µM, the GI50 (EKVX NSCLC) was 25 µM and the TGI (EKVX NSCLC) was over 100 µM. It also gave a GI50 (SNB-75 CNS) of 69.2 µM, a TGI (SNB-75 CNS) of over 100 µM and a GI50 (NCI-H226 lung) of 19.8 µM. For the same molecule, the TGI (NCI-H226 lung) was 85 µM, the GI50 (T-47D breast) was 36.5 µM and the TGI (T-47D breast) was over 100 µM. It also gave a GI50 (MDA-MB-231 breast) of 12.5 µM, a TGI (MDA-MB-231 breast) of 74.8 µM and a GI50 (HS 578T breast) of 38.6 µM. For the same molecule, the TGI (HS 578T breast) was over 100 µM, the GI50 (NCI-H522 lung) was 9.7 µM and the TGI (NCI-H522 lung) was 65.8 µM. For the same molecule, the GI50 (RPMI-8226 leukemia) was 27.6 µM, the TGI (RPMI-8226 leukemia) was over 100 µM and the GI50 (ACHN renal) was 84.6 µM. The TGI (ACHN renal) was over 100 µM, the GI50 (HT29 colon) was 87.8 µM and the TGI (HT29 colon) was over 100 µM. It also gave a GI50 (DU-145 prostate) of 88.8 µM, a TGI (DU-145 prostate) of over 100 µM and a GI50 (PC-3 prostate) of 25.5 µM. For the same molecule, the TGI (PC-3 prostate) was over 100 µM, the GI50 (HOP-92 NSCLC) was 31.1 µM and the TGI (HOP-92 NSCLC) was over 100 µM. The GI50 (MDA-MB-435) was 54.1 µM, the TGI (MDA-MB-435) was over 100 µM and the GI50 (HCT-116 colon) was 30.7 µM. It also gave a TGI (HCT-116 colon) of 93.8 µM, a GI50 (SK-MEL-28 melanoma) of 71.6 µM and a TGI (SK-MEL-28 melanoma) of over 100 µM. For the same molecule, the GI50 (SW-620 colon) was 97.6 µM, the TGI (SW-620 colon) was over 100 µM and the GI50 (LOX IMVI melanoma) was 84.9 µM. It also gave a TGI (LOX IMVI melanoma) of over 100 µM, a GI50 (RXF 393 renal) of 29 µM and a TGI (RXF 393 renal) of over 100 µM. For the same molecule, the GI50 (BT-549 breast) was 28.7 µM, the TGI (BT-549 breast) was over 100 µM and the GI50 (NCI-H460 lung) was 77.3 µM. For the same molecule, the TGI (NCI-H460 lung) was over 100 µM, the GI50 (HCC-2998 colon) was 66.8 µM and the TGI (HCC-2998 colon) was over 100 µM. For the same molecule, the GI50 (SF-268 CNS) was 54.9 µM, the TGI (SF-268 CNS) was over 100 µM and the GI50 (UACC-62 melanoma) was 19.5 µM. It also gave a TGI (UACC-62 melanoma) of 92.3 µM, a GI50 (OVCAR-5 ovarian) of over 100 µM and a TGI (OVCAR-5 ovarian) of over 100 µM. It also gave a GI50 (K-562 leukemia) of 16.8 µM, a TGI (K-562 leukemia) of over 100 µM and a GI50 (HL-60(TB) leukemia) of 28.7 µM. For the same molecule, the TGI (HL-60(TB) leukemia) was over 100 µM, the GI50 (HOP-62 NSCLC) was 19.4 µM and the TGI (HOP-62 NSCLC) was 65.4 µM. The GI50 (NCI/ADR-RES ovarian) was 18.9 µM, the TGI (NCI/ADR-RES ovarian) was over 100 µM and the GI50 (SK-MEL-2 melanoma) was 17.7 µM. It also gave a TGI (SK-MEL-2 melanoma) of 81 µM, a GI50 (M14 melanoma) of 20.9 µM and a TGI (M14 melanoma) of 53.8 µM. The GI50 (OVCAR-3 ovarian) was 39.7 µM, the TGI (OVCAR-3 ovarian) was over 100 µM and the GI50 (CAKI-1 renal) was 24.6 µM. For the same molecule, the TGI (CAKI-1 renal) was 97.5 µM, the GI50 (A549 NSCLC) was 56.2 µM and the TGI (A549 NSCLC) was over 100 µM. The GI50 (SF-295 CNS) was 64.9 µM, the TGI (SF-295 CNS) was over 100 µM and the GI50 (OVCAR-8 ovarian) was 51.1 µM. The TGI (OVCAR-8 ovarian) was over 100 µM, the GI50 (OVCAR-4 ovarian) was 30.9 µM and the TGI (OVCAR-4 ovarian) was 81.3 µM. For the same molecule, the GI50 (SK-OV-3 ovarian) was over 100 µM, the TGI (SK-OV-3 ovarian) was over 100 µM and the GI50 (SR leukemia) was 8.18 µM. For the same molecule, the TGI (SR leukemia) was 88.7 µM, the GI50 (KM12 colon) was 28.9 µM and the TGI (KM12 colon) was over 100 µM. The GI50 (A498 renal) was 18.2 µM, the TGI (A498 renal) was 80.1 µM and the GI50 (HCT-15 colon) was 62.4 µM. The TGI (HCT-15 colon) was over 100 µM, the GI50 (COLO 205 colon) was 61.5 µM and the TGI (COLO 205 colon) was over 100 µM. It also gave a GI50 (786-0 renal) of 33.9 µM and a TGI (786-0 renal) of over 100 µM.
